Data: the supplement of paper PMC10307832

Assays:
Assay in all cases: relative viability (nuclei count vs DMSO), 5 days (fraction); higher = more cells survive
Bexarotene + Crizotinib = compound: C=C(c1ccc(C(=O)O)cc1)c1cc2c(cc1C)C(C)(C)CCC2(C)C [Bexarotene] + C[C@@H](Oc1cc(-c2cnn(C3CCNCC3)c2)cnc1N)c1c(Cl)ccc(F)c1Cl [Crizotinib] (partner 1 µM)
Summary of the method: (§1)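 A single step with final 0.05% Triton X-100, 1% formaldehyde and 1 ug/ml Hoechst fixed the cells and stained nuclei 5 days after treatment. Lung cancer cell lines in 1536-well plates had been treated by pin tool the day after seeding with one drug alone or a fixed anchor-drug dose plus five library-drug doses (not always all listed) in √10 steps, and nuclei were counted on 4× images. Relative viability is the ratio of nuclei in treated wells to nuclei in vehicle wells, taken as the median of duplicate plates.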

Bexarotene + Phenformin = compound: C=C(c1ccc(C(=O)O)cc1)c1cc2c(cc1C)C(C)(C)CCC2(C)C [Bexarotene] + N=C(N)NC(=N)NCCc1ccccc1 [Phenformin] (partner 250 µM)
Summary of the method: as §1

Bexarotene + Navitoclax = compound: C=C(c1ccc(C(=O)O)cc1)c1cc2c(cc1C)C(C)(C)CCC2(C)C [Bexarotene] + CC1(C)CCC(c2ccc(Cl)cc2)=C(CN2CCN(c3ccc(C(=O)NS(=O)(=O)c4ccc(N[C@H](CCN5CCOCC5)CSc5ccccc5)c(S(=O)(=O)C(F)(F)F)c4)cc3)CC2)C1 [Navitoclax] (partner 0.5 µM)
Summary of the method: as §1

Bexarotene + Decitabine = compound: C=C(c1ccc(C(=O)O)cc1)c1cc2c(cc1C)C(C)(C)CCC2(C)C [Bexarotene] + Nc1ncn([C@H]2C[C@H](O)[C@@H](CO)O2)c(=O)n1 [Decitabine] (partner 2 µM)
Summary of the method: as §1

| Cell Line | relative viability (Bexarotene + Crizotinib; first compound 0.08 µM) | relative viability (Bexarotene + Crizotinib; first compound 0.253 µM) | relative viability (Bexarotene + Crizotinib; first compound 0.8 µM) | relative viability (Bexarotene + Crizotinib; first compound 2.53 µM) | relative viability (Bexarotene + Crizotinib; first compound 8 µM) | relative viability (Bexarotene + Phenformin; first compound 0.08 µM) | relative viability (Bexarotene + Phenformin; first compound 0.253 µM) | relative viability (Bexarotene + Phenformin; first compound 0.8 µM) | relative viability (Bexarotene + Phenformin; first compound 2.53 µM) | relative viability (Bexarotene + Phenformin; first compound 8 µM) | relative viability (Bexarotene + Navitoclax; first compound 0.08 µM) | relative viability (Bexarotene + Navitoclax; first compound 0.253 µM) | relative viability (Bexarotene + Navitoclax; first compound 0.8 µM) | relative viability (Bexarotene + Navitoclax; first compound 2.53 µM) | relative viability (Bexarotene + Navitoclax; first compound 8 µM) | relative viability (Bexarotene + Decitabine; first compound 0.08 µM) | relative viability (Bexarotene + Decitabine; first compound 0.253 µM) | relative viability (Bexarotene + Decitabine; first compound 0.8 µM) | relative viability (Bexarotene + Decitabine; first compound 2.53 µM) | relative viability (Bexarotene + Decitabine; first compound 8 µM) |
| --- | --- | --- | --- | --- | --- | --- | --- | --- | --- | --- | --- | --- | --- | --- | --- | --- | --- | --- | --- | --- |
| NCI-H2085 | 0.863 | 0.891 | 0.831 | 0.791 | 0.74 | 0.759 | 0.646 | 0.531 | 0.678 | 0.718 | 1.09 | 1.13 | 0.961 | 0.949 | 0.924 | 0.539 | 0.545 | 0.512 | 0.487 | 0.536 |
| NCI-H2087 | 0.854 | 1.14 | 0.716 | 0.827 | 0.867 | 0.527 | 0.475 | 0.451 | 0.433 | 0.435 | 1.11 | 0.944 | 1.1 | 0.848 | 0.759 | 0.303 | 0.277 | 0.242 | 0.227 | 0.215 |
| NCI-H2126 | 1.08 | 1.05 | 0.989 | 1.08 | 0.977 | 0.529 | 0.535 | 0.526 | 0.56 | 0.55 | 0.925 | 0.916 | 0.844 | 0.958 | 0.872 | 0.631 | 0.696 | 0.575 | 0.571 | 0.554 |
| NCI-H2170 | 1.1 | 1.11 | 1.15 | 1.02 | 1.05 | 0.457 | 0.403 | 0.388 | 0.357 | 0.361 | 0.578 | 0.606 | 0.615 | 0.55 | 0.559 | 0.438 | 0.463 | 0.446 | 0.417 | 0.465 |
| NCI-H2347 | 0.671 | 0.773 | 0.597 | 0.765 | 0.674 | 0.361 | 0.434 |  | 0.376 | 0.353 | 0.971 | 0.846 | 0.63 | 0.793 | 0.783 | 0.621 | 0.705 | 0.606 | 0.686 | 0.565 |
| NCI-H2405 | 0.945 | 0.853 | 0.665 | 0.806 | 0.839 | 0.448 | 0.443 | 0.296 | 0.408 | 0.36 | 0.999 | 0.814 | 0.753 | 0.926 | 0.786 | 0.887 | 0.729 | 0.653 | 0.711 | 0.775 |
| NCI-H3122 | 0.238 | 0.261 | 0.233 | 0.276 | 0.337 | 0.379 | 0.367 | 0.359 | 0.385 | 0.372 | 1.12 | 1.11 | 1.1 | 1.01 | 1.09 | 0.521 | 0.385 | 0.416 | 0.415 | 0.365 |
| PC-3 [JPC-3] | 1.02 | 1.02 | 0.904 | 0.965 | 0.857 | 0.489 | 0.514 | 0.448 | 0.52 | 0.505 | 0.86 | 0.904 | 0.754 | 0.797 | 0.693 | 0.874 | 0.865 | 0.88 | 0.745 | 0.781 |
| PC-14 | 0.912 | 1.04 | 1.04 | 0.946 | 0.841 | 0.611 | 0.61 | 0.523 | 0.435 | 0.522 | 1.12 | 1.11 | 0.948 | 0.841 | 0.809 | 0.288 | 0.251 | 0.251 | 0.206 | 0.209 |
| RERF-LC-KJ | 0.773 | 0.791 | 0.76 | 0.777 | 0.752 | 0.407 | 0.405 | 0.402 | 0.364 | 0.426 | 1.07 | 0.934 | 1.08 | 1 | 0.92 | 0.692 | 0.656 | 0.682 | 0.7 | 0.739 |
| SK-LU-1 | 0.926 | 1.06 |  | 0.896 | 0.717 | 0.633 | 0.667 |  | 0.417 | 0.387 | 1.1 | 0.845 |  | 0.645 | 1.09 | 0.668 | 0.676 |  | 0.588 | 0.599 |
| SK-MES-1 | 0.995 | 1.06 | 1.01 | 1.04 | 0.925 | 0.751 | 0.717 | 0.67 | 0.615 | 0.558 | 1.47 | 1.2 | 1.25 | 1.33 | 1.09 | 0.43 | 0.379 | 0.423 | 0.294 | 0.3 |
| SW 1573 | 0.764 | 0.82 | 0.688 | 0.684 | 0.552 | 0.374 | 0.328 | 0.332 | 0.273 | 0.297 | 1.07 | 0.777 | 0.731 | 0.735 | 0.598 | 0.505 | 0.43 | 0.482 | 0.452 | 0.363 |
| UMC-11 | 0.546 | 0.684 | 0.537 | 0.572 | 0.587 | 0.372 | 0.327 | 0.314 | 0.301 | 0.295 | 0.347 | 0.268 | 0.306 | 0.305 | 0.284 | 0.605 | 0.589 | 0.604 | 0.634 | 0.539 |
